According to patent US20180185374A1, “INHIBITORS OF MTOR KINASE AS ANTI-VIRAL AGENTS” (THE TRUSTEES OF PRINCETON UNIVERSITY, priority 2009, published 2018):

What was measured:
HCMV [1] = assay: HCMV multistep growth in serum-starved human fibroblasts, cell-free virus by TCID50; type: cell-based, human cytomegalovirus
HSV-1 = HSV-1 replication in MEFs, TCID50; type: cell-based, herpes simplex virus type 1; details: 72 hpi
HCMV [2] = assay: GFP marker expression from viral genome, percentage of infected cells; type: cell-based, human cytomegalovirus; details: 24 hpi; 250 nM
Method: FIG. 2. […] Serum-starved confluent fibroblasts were infected with HCMV at a multiplicity of 3 PFU/cell. […] Control cultures received the vehicle in which Torin1 was dissolved (NT). At 2 hpi cells were harvested, and cell-associated viral DNA was quantified by real-time PCR analysis. Error bars represent the standard errors of the means from two independent experiments performed in duplicate. […] The level of IE1 was determined at 6 hpi by a Western blot assay using an IE1-specific monoclonal antibody. The image is representative of two independent experiments. […] The expression of a GFP marker gene present in the viral genome was monitored at 24 h after infection in the presence or absence of drug.

rpS6 = rpS6 phosphorylation in HCMV-infected fibroblasts, Western blot; type: cell-based, human; details: rapamycin 20 nM, Torin1 250 nM; 3 PFU/cell
Method: (§1) FIG. 4. Rapamycin-resistant mTOR activity is required for 4EBP1 phosphorylation and eIF4F complex integrity during HCMV infection. Serum-starved confluent human fibroblasts were infected with HCMV at a multiplicity of 3 PFU/cell. […] (A) At 48 hpi the phosphorylation status of mTORC1 targets was assessed by Western blot assay by using antibodies to phosphorylated targets (4EBP1-PT^37/46 and rpS6-PS^235/6) and total proteins. Tubulin was assayed as a loading control. (B) Same as above (A) except that cells were harvested at the indicated times. (C and D) After mock infection (M) or infection with HCMV (WT) at a multiplicity of 3 PFU/cell, cultures were harvested at the indicated times. Equivalent amounts of protein from each sample were incubated with m^7GTP-Sepharose, and the isolated protein complexes were analyzed by Western blotting using the indicated antibodies to the eIF4F complex and 4EBP1. In all cases the results are representative of at least two independent experiments. lys, lysate.
(§2) HCMV infection induces mTORC1 activity, but the phosphorylation of mTORC1 targets is differentially sensitive to the mTORC1 inhibitor rapamycin. […] Total 4EBP1, rpS6, and tubulin levels were monitored to control for protein recovery. […]

HCMV [3] = assay: Torin1 drug release experiment, HCMV yield 16 days post infection by TCID50; type: cell-based, human cytomegalovirus; details: ≤250 nM drug
Method: FIG. 1. […] Serum-starved confluent human fibroblasts were infected with HCMV at a multiplicity of 0.05 PFU/cell. Cell-free virus was quantified by a TCID50 assay, and error bars represent the standard errors of the means from two independent experiments, each performed in duplicate. […] Supernatants were harvested every other day and replaced with fresh medium containing the appropriate treatment, and virus in the supernatant was assayed on the indicated days. […] Infected fibroblasts were treated with various doses of Torin1. Medium with drug was replaced every other day, and virus in the supernatant was assayed on day 8 post infection (black bars). On day 8, a second set of cultures was washed twice, serum-free medium containing no drug was added to each well, and virus was assayed after an additional 8 days (16 days post infection) (white bars).
To further confirm that the viral growth defect was not the result of cytotoxicity, we performed a drug release experiment. […] Eight days later, virus in the supernatant was quantified by the TCID50 method (16 days post infection) (FIG. 1B).

cells = details: concentrations of up to 500 nM; previous reports; cited from earlier work
4EBP1 [4] = assay: 4EBP1 phosphorylation in HCMV-infected fibroblasts, Western blot; type: cell-based, human; details: rapamycin 20 nM, Torin1 250 nM; 3 PFU/cell
Method: as §1, §2

4EBP1 [5] = assay: 4EBP1 phosphorylation in HSV-1-infected MEFs, Western blot; type: cell-based, mouse; details: 3 PFU/cell, 8 hpi

CCC(=O)N1CCN(c2ccc(-n3c(=O)ccc4cnc5ccc(-c6cnc7ccccc7c6)cc5c43)cc2C(F)(F)F)CC1 [Torin1]
reduction of HCMV yield (HCMV [1]; day 10, 0.05 PFU/cell, rapamycin 20 nM, Torin1 250 nM): about 160 fold | IC50 (HCMV [1]; read-out: 50% inhibitory concentration (IC50) for production of HCMV progeny, 8 days post infection): ~60 nM | production of HSV-1 (HSV-1; 4EBP1-null MEFs): failed to inhibit | HSV-1 replication (HSV-1; MEFs, 0.05 PFU/cell, rapamycin 20 nM, Torin1 250 nM): inhibited both viruses | percentage of cells expressing GFP marker (HCMV [2]): did not alter the percentage of cells | induction of rpS6 phosphorylation during HCMV infection (rpS6): markedly inhibited | increase in virus yield after reversal of 8-day treatment (HCMV [3]): ≥ 100 fold | cell killing (cells): does not kill cells | phosphorylation of 4EBP1 during HCMV infection (4EBP1 [4]): substantially blocked | phosphorylation of 4EBP1 during HSV-1 infection (4EBP1 [5]): inhibited
